The target of assay [1] is T1, GSK3α (Homo sapiens, UniProt P49840). As to conditions: for IC50: read-out: Caliper Assay, GSK3α IC50.
The target in assay [2] is T2, GSK3β (Homo sapiens, UniProt P49841). Description: biochemical.
Assay [3] concerns the target T1, GSK3α. Description: biochemical.
Assay [4] concerns the target T2, GSK3β.
The mark [5] stands for this setting: Caliper assay, GSK3α over GSK3β.
[6] abbreviates: Caliper assay, GSK3β over GSK3α.

Molecules are shown by their SMILES. Like-named read-outs stand apart in the source and are kept apart here.

T1 sequence (P49840 whole entry): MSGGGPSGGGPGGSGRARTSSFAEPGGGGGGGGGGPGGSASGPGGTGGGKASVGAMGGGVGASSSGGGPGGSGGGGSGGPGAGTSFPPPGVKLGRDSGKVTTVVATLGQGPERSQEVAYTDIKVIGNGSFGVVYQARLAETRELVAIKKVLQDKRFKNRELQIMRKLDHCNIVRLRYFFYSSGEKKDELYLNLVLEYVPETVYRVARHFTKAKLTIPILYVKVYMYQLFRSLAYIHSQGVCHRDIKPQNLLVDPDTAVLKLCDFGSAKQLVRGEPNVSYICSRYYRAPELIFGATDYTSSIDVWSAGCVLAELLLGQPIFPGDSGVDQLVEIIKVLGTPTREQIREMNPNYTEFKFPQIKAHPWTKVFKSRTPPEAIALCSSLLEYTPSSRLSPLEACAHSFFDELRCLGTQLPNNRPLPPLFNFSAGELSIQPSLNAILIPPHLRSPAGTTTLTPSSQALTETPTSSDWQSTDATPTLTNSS
T2 sequence (P49841 whole entry): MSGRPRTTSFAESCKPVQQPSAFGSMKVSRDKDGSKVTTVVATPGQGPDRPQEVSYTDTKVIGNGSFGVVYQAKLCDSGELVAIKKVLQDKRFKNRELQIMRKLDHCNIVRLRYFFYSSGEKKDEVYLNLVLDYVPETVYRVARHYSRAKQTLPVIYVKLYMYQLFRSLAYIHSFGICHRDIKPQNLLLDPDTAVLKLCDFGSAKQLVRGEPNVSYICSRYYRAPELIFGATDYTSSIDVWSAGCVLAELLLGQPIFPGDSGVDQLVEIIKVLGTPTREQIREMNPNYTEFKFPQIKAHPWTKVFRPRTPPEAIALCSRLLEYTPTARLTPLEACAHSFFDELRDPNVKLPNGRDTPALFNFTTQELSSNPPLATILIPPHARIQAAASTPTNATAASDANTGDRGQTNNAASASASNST

For orientation: IC50 means the midpoint of a concentration-inhibition curve. Take `CCC[C@@]1(c2ccccc2)C2=C(CC(C)(C)CC2=O)Nc2n[nH]cc21` (stereo in doubt) [Compound 229]: the GSK3α fold selectivity in assay [1] (setting [5]) worked out at 1.9 fold. Further, the IC50 in assay [2] came out at 1890 nM; in assay [3] it was 970 nM.

For `Cc1[nH]nc2c1[C@@](c1ccccc1)(C(F)(F)F)C1=C(CC(C)(C)CC1=O)N2` [Compound 93, 1,6,6-trimethyl-9-phenyl-9-(trifluoromethyl)-5,6,7,9-tetrahydro-2H-pyrazolo[3,4-b]quinolin-8(4H)-one], the IC50 in assay [1] was under 100 nM.

Take `CCC1(c2ccccc2)C2=C(CC(C)(C)CC2=O)Nc2n[nH]c(C3CC3)c21` (racemic) [Compound 244]: the GSK3α fold selectivity in assay [1] (setting [5]) came to 1.9 fold. Further, the results for the IC50 in assay [2] and in assay [3] were 43 nM and 23 nM, respectively.

As to `CC[C@]1(c2ccccc2)C2=C(CC(C)(C)CC2=O)Nc2n[nH]c(F)c21` (stereo in doubt) [Compound 240], in assay [1] (setting [5]), the GSK3α fold selectivity was over 2.7 fold. The figures for the half-inhibitory concentration (IC50) in assay [2] and in assay [3] were over 33000 nM and 12300 nM, respectively.

On to `Cc1[nH]nc2c1[C@@](C)(c1cccc(C#N)c1)C1=C(CC(C)(C)CC1=O)N2` [Compound 97, 3-(1,6,6,9-tetramethyl-8-oxo-4,5,6,7,8,9-hexahydro-2H-pyrazolo[3,4-b]quinolin-9-yl)benzonitrile], for which, in assay [1] (GSK3α over GSK3β), the GSK3α fold selectivity amounted to 5.9 fold.

In assay [1] (setting [5]), `CC[C@]1(c2cccc(F)c2)C2=C(CC(C)(C)CC2=O)Nc2n[nH]cc21` (stereo in doubt) [Compound 215] returned a GSK3α fold selectivity of over 3.5 fold. Moreover, the values for the IC50 in assay [2] and in assay [3] were over 33000 nM and 9550 nM, respectively.

In assay [1] (setting [5]), `CC[C@@]1(c2cc(Cl)cc(Cl)c2)C2=C(CC(C)(C)CC2=O)Nc2n[nH]cc21` (stereo in doubt) [Compound 221] showed a GSK3α fold selectivity of 8.9 fold. The 50% inhibitory concentration (IC50) in assay [2] is 929 nM; in assay [3] it was 104 nM.

`CC[C@]1(c2cc(Cl)cc(Cl)c2)C2=C(CC(C)(C)CC2=O)Nc2n[nH]cc21` (stereo in doubt) [Compound 222] displayed a GSK3α fold selectivity in assay [1] (setting [5]) of 6.4 fold. The figures for the half-maximal inhibitory concentration (IC50) in assay [2] and in assay [3] were 11300 nM and 1750 nM, respectively.

`CC[C@@]1(c2ccccc2)C2=C(CC(C)(C)CC2=O)Nc2n[nH]c(F)c21` (stereo in doubt) [Compound 239] gave a GSK3α fold selectivity in assay [1] (setting [5]) of 9.6 fold. Moreover, the IC50 in assay [2] is 1440 nM; in assay [3], 150 nM.

Regarding `CC1(C)CC(=O)C2=C(C1)Nc1n[nH]c(F)c1C2(C)c1ccccc1` (stereo not drawn) [Compound 241], the GSK3α fold selectivity in assay [1] (setting [5]) was 4.7 fold. The results for the IC50 in assay [2] and in assay [3] were 4210 nM and 887 nM, respectively.

In assay [1] (setting [5]), `CC[C@@]1(c2cc(F)cc(F)c2)C2=C(CC(C)(C)CC2=O)Nc2n[nH]cc21` (stereo in doubt) [Compound 216] came in with a GSK3α fold selectivity of 9.0 fold. For the same molecule, the IC50 in assay [2] came out at 4040 nM; in assay [3], 450 nM.

With `CC1(C)CC(=O)C2=C(C1)Nc1n[nH]c(C3CC3)c1C2(C)c1cccc(C(F)(F)F)c1` (stereo not drawn) [Compound 118], the GSK3α fold selectivity in assay [1] was found to be 1.1 fold.

Consider `CC1(C)CC(=O)C2=C(C1)Nc1n[nH]c(Br)c1C2(C)c1ccccc1` (stereo not drawn) [Compound 111], for which the GSK3α fold selectivity in assay [1] (GSK3α over GSK3β) worked out at 3.1 fold.

`CC1(C)CC(=O)C2=C(C1)Nc1n[nH]c(C(F)(F)F)c1C2c1cccc(OC(F)(F)F)c1` (stereo not drawn) [Compound 57]: the half-maximal inhibitory concentration (IC50) in assay [1] and in assay [2] was under 100 nM in each case.

`CC1(C)CC(=O)C2=C(C1)Nc1n[nH]c(Cl)c1C2(C)c1ccccc1` (stereo not drawn) [Compound 110] yielded a GSK3α fold selectivity in assay [1] (GSK3α over GSK3β) of 1.8 fold.

In turn, `Cc1[nH]nc2c1C1(CCCC1)C1=C(CC(C)(C)CC1=O)N2` [Compound 102] displayed a GSK3α fold selectivity in assay [1] (GSK3α over GSK3β) of 1.9 fold.

Take `COC(=O)c1[nH]nc2c1C(C)(c1ccccc1)C1=C(CC(C)(C)CC1=O)N2` (stereo not drawn) [Compound 104]: the GSK3α fold selectivity in assay [1] (GSK3α over GSK3β) turned out to be 1.5 fold.

In the case of `COc1ccccc1C1C2=C(CC(C)(C)CC2=O)Nc2n[nH]c(CC(C)(C)C)c21` (racemic) [Compound 278], in assay [4] (setting [6]), the GSK3β fold selectivity is 13.3 fold. The IC50 in assay [2] stood at 19 nM; in assay [3], 253 nM.

`CC1(C)CC(=O)C2=C(C1)Nc1n[nH]c(C3CC(F)(F)C3)c1C2(C)c1cccc(C(F)(F)F)c1` (racemic) [Compound 247] came in with a GSK3β fold selectivity in assay [4] (setting [6]) of 1.6 fold. In addition, the half-maximal inhibitory concentration (IC50) in assay [2] came out at 328 nM; in assay [3] it was 523 nM.

In assay [4] (setting [6]), `CC(C)c1[nH]nc2c1[C@@](C)(c1ccccc1)C1=C(CC(C)(C)CC1=O)N2` (stereo in doubt) [Compound 298] gave a GSK3β fold selectivity of 2.1 fold. Also, the concentration for half-maximal inhibition (IC50) in assay [2] was 229 nM; in assay [3], 479 nM.

`CCc1ccccc1[C@@H]1C2=C(CC(C)(C)CC2=O)Nc2n[nH]c(C(C)C)c21` [Compound 322] came in with a GSK3β fold selectivity in assay [4] (setting [6]) of 11.0 fold. For the same molecule, the IC50 in assay [2] stood at 42 nM; in assay [3], 462 nM.

On to `COc1ccccc1C1(C)C2=C(CC(C)(C)CC2=O)Nc2n[nH]c(C3CC(F)(F)C3)c21` (racemic) [Compound 253], for which, in assay [4] (setting [6]), the GSK3β fold selectivity came out at 3.7 fold. Further, the concentration for half-maximal inhibition (IC50) was found to be 3380 nM in assay [2] and 12400 nM in assay [3].

In the case of `CC(C)(C)Cc1[nH]nc2c1[C@](C)(c1ccccc1)C1=C(CC(C)(C)CC1=O)N2` (stereo in doubt) [Compound 272], the GSK3β fold selectivity in assay [4] (setting [6]) turned out to be 14.3 fold. Besides, the IC50 turned out to be 15 nM in assay [2] and 215 nM in assay [3].

Turning to `CC1(C)CC(=O)C2=C(C1)Nc1n[nH]c(C3CC(F)(F)C3)c1C21CCCc2ccccc21` (stereo not drawn) [Compound 267], the GSK3β fold selectivity in assay [4] worked out at 9.0 fold. Moreover, the results for the IC50 in assay [2] and in assay [3] were 38 nM and 342 nM, respectively.

Molecule `CC(C)(C)Cc1[nH]nc2c1[C@@]1(CCOc3ccccc31)C1=C(CC(C)(C)CC1=O)N2` (stereo in doubt) [Compound 288] displayed a GSK3β fold selectivity in assay [4] (setting [6]) of 7.7 fold. Besides, the IC50 in assay [2] was 18 nM; in assay [3], 139 nM.

Molecule `CC[C@@]1(c2cccc(C(C)(C)C)c2)C2=C(CC(C)(C)CC2=O)Nc2n[nH]cc21` (stereo in doubt) [Compound 226] came in with a GSK3β fold selectivity in assay [4] (setting [6]) of 4.3 fold. Moreover, the results for the half-inhibitory concentration (IC50) in assay [2] and in assay [3] were 12 nM and 51 nM, respectively.

In assay [4] (setting [6]), `CC1(C)CC(=O)C2=C(C1)Nc1n[nH]c(C3CCCC3)c1[C@@]2(C)c1ccccc1` (stereo in doubt) [Compound 302] had a GSK3β fold selectivity of 5.2 fold. Moreover, the IC50 in assay [2] amounted to 5280 nM; in assay [3], 27500 nM.

`CC(C)(C)Cc1[nH]nc2c1C1(CCc3ccccc31)C1=C(CC(C)(C)CC1=O)N2` (racemic) [Compound 281] yielded a GSK3β fold selectivity in assay [4] (setting [6]) of 20.5 fold. In addition, the IC50 in assay [2] amounted to 4 nM; in assay [3], 82 nM.

The molecule `CC1(C)CC(=O)C2=C(C1)Nc1n[nH]c(C3CC(F)(F)C3)c1C21CCc2ccccc21` (racemic) [Compound 258] registered a GSK3β fold selectivity in assay [4] of 10.3 fold. Further, the 50% inhibitory concentration (IC50) was 18 nM in assay [2] and 185 nM in assay [3].

In assay [4] (setting [6]), `CC(C)(C)Cc1[nH]nc2c1C1(CCc3cc(F)ccc31)C1=C(CC(C)(C)CC1=O)N2` (racemic) [Compound 284] gave a GSK3β fold selectivity of 7.7 fold. The 50% inhibitory concentration (IC50) in assay [2] was found to be 63 nM; in assay [3], 485 nM.

`Cc1[nH]nc2c1[C@](C)(c1ccccc1)C1=C(CC(C)(C)CC1=O)N2` [Compound 123] showed a GSK3α fold selectivity in assay [1] (GSK3α over GSK3β) of 3.6 fold. The molecule also displayed an IC50 in assay [2] of under 100 nM.

For the molecule `CC(C)(C)Cc1[nH]nc2c1C(C)(c1ccccc1)C1=C(CC(C)(C)CC1=O)N2` (racemic) [Compound 271], in assay [4] (setting [6]), the GSK3β fold selectivity was determined as 9.5 fold. In addition, the IC50 was 25 nM in assay [2] and 237 nM in assay [3].

In assay [4] (setting [6]), `CC1(C)CC(=O)C2=C(C1)Nc1n[nH]c(C3CCCCC3)c1[C@@]2(C)c1ccccc1` (stereo in doubt) [Compound 305] came in with a GSK3β fold selectivity of 3.4 fold. Besides, the figures for the IC50 in assay [2] and in assay [3] were 5060 nM and 17400 nM, respectively.

In assay [1] (GSK3α over GSK3β), `CC1(C)CC(=O)C2=C(C1)Nc1n[nH]c(C3CC3)c1C2(C)c1ccccc1F` (stereo not drawn) [Compound 116] showed a GSK3α fold selectivity of 1.1 fold.

Consider `CC(C)c1[nH]nc2c1[C@](C)(c1ccccc1)C1=C(CC(C)(C)CC1=O)N2` (stereo in doubt) [Compound 297], for which, in assay [4] (setting [6]), the GSK3β fold selectivity is on record as 2.3 fold. The figures for the IC50 in assay [2] and in assay [3] were 24 nM and 56 nM, respectively.

In turn, `COc1ccccc1[C@H]1C2=C(CC(C)(C)CC2=O)Nc2n[nH]c(C(C)C)c21` [Compound 295] had a GSK3β fold selectivity in assay [4] (setting [6]) of 8.1 fold. For the same molecule, the concentration for half-maximal inhibition (IC50) was 57 nM in assay [2] and 462 nM in assay [3].

`CC1(C)CC(=O)C2=C(C1)Nc1n[nH]c(C3CC(F)(F)C3)c1[C@@]21COc2ccccc21` [Compound 256]: the GSK3β fold selectivity in assay [4] was 6.5 fold. The concentration for half-maximal inhibition (IC50) stood at 2 nM in assay [2] and 13 nM in assay [3].

On to `COc1ccccc1[C@]1(C)C2=C(CC(C)(C)CC2=O)Nc2n[nH]c(C3CC(F)(F)C3)c21` (stereo in doubt) [Compound 254], for which the GSK3β fold selectivity in assay [4] (setting [6]) was found to be 3.7 fold. In addition, the results for the 50% inhibitory concentration (IC50) in assay [2] and in assay [3] were 2520 nM and 9330 nM, respectively.

Molecule `CC(C)(C)Cc1[nH]nc2c1[C@]1(CCc3cc(F)ccc31)C1=C(CC(C)(C)CC1=O)N2` (stereo in doubt) [Compound 286] returned a GSK3β fold selectivity in assay [4] (setting [6]) of 6.0 fold. The 50% inhibitory concentration (IC50) in assay [2] came to 790 nM; in assay [3] it was 4760 nM.

Molecule `CC1(C)CC(=O)C2=C(C1)Nc1n[nH]c(C3CC(F)(F)C3)c1C21CCOc2ccccc21` (racemic) [Compound 268] showed a GSK3β fold selectivity in assay [4] of 11.1 fold. Besides, the concentration for half-maximal inhibition (IC50) in assay [2] is 78 nM; in assay [3] it was 865 nM.

`CC1(C)CC(=O)C2=C(C1)Nc1n[nH]c(C3CC(F)(F)C3)c1[C@@]21CCc2ccccc21` [Compound 259] showed a GSK3β fold selectivity in assay [4] of 4.4 fold. Moreover, the IC50 is 20 nM in assay [2] and 87 nM in assay [3].

Source of the values: patent US20160375006A1, “USES OF PARALOG-SELECTIVE INHIBITORS OF GSK3 KINASES” (priority 2012, published 2016).
